Values joined by “and” are separate entries in the source; they are usually repeats but may differ in a detail not shown here. Identical values can stand only once. “Also recorded” adds a separate entry of the source.
Assays:
[1] = test system: E. faecalis V583-induced AL
Description: Mouse model of AL. The experiments disclosed herein used the validated model of pathogen-mediated AL in mice (8′). Ten- to 12-week-old C57BL/6 mice (Charles River) were provided standard chow and tap water ad libidum at all times. When indicated, mice received oral clindamycin (100 mg/kg gavage) and subcutaneous cefoxitin (40 mg/kg) the day prior to, and the day of, surgery. Mice underwent general anesthesia with intraperitoneal ketamine and xylocaine and laparotomy followed by transection of the colon at the colo-rectal junction followed by a primary anastomosis created with interrupted 8-0 prolene suture prior to abdominal closure with 4-0 vicryl suture in two layers. Rectal enemas containing pathogen, either E. faecalis or P. aeruginosa at an OD600 of 0.1 in 10% glycerol, were administered in 100 L enemas. E. faecalis was introduced on POD 1, 2, and 3, while P. aeruginosa was introduced only on POD 1. Mice received 100 L rectal enemas containing 50 mM TXA or vehicle control on postoperative days 1, 2, and 3. Rectal delivery with a gavage needle ensured local administration of pathogen and study drugs to the surgical site. […] Both the surgeon and the investigator performing analysis of healing were blind to the treatment group. […]

[2] = molecular target: FITC-PLG at the anastomosis (Homo sapiens, UniProt P00747); test: In vivo deposition of FITC-PLG at surgical anastomoses; set-up: species or system mice; settings: TXA enema one hour prior to sacrifice, 48 and 72 hours post-operative
Description: Mice underwent anastomosis without exposure to antibiotics or exogenous pathogen followed by intraperitoneal injection with FITC-PLG and either TXA or vehicle control enema one hour prior to sacrifice. Three animals per treatment group were sacrificed at various time points. […] Either TXA or water vehicle enema was administered along with systemic FITC-PLG injection one hour prior to sacrifice. […] Total FITC-PLG fluorescent signal was quantified in all mice as integrated density/area. […] A segment of anastomotic tissue collected from a mouse that received no enemas at 24 hours post-operative was observed. FITC-PLG fluorescence intensity is spatially quantified across the length of the tissue.
Mean FITC staining intensity was quantified as integrated density/area at the anastomotic sites of three mice per treatment group at the 48- and 72-hour time points.

[3] = molecular target: PLG activation by E. faecalis V583 (Homo sapiens, UniProt P00747); type: biochemical
Description: Plasminogen/uPA activity. Plasmin activity assays were performed as previously described with minor modifications, and fluorescence data was analyzed per the manufacturer's instructions (50′). Incubation times were optimized for bacteria at low optical density to limit internal filter effects in fluorescence-based assays. Bacteria (when included) were grown overnight in TY media. OD600 was normalized by dilution to 0.1, equivalent to 8×10^7 CFU/mL. Samples at OD 0.1 were diluted 1:10 in the final reaction through the addition of media and dissolved substrates. Bacteria were incubated with 250 nM human glu-plasminogen (Haematologic technologies) for two hours at 37° C. TXA (Fisher) was added concomitantly with PLG. […] A final concentration of 6 M fluorogenic substrate specific for plasmin (H-D-Val-Leu-Lys-AFC, AnaSpec) was added immediately prior to a kinetic fluorescent read with excitation wavelength 380 nm and emission wavelength 500 nm. Reads were conducted every 15 to 30 seconds over the course of 30 minutes. […] When assays were performed in human plasma, fluorescence was read for 120 minutes total.
Plasmin or uPA activity is expressed as initial reaction velocity calculated from change in fluorescence over time during the initial phase of the reaction, when pseudo-first order kinetics determine the rate due to high substrate concentrations where a linear rise in fluorescence is observed. […]

[4] = test system: RAW macrophages stimulated by V583; test: Gelatin degradation by V583-stimulated RAW macrophages; type: cell-based, murine; settings: 10 mM TXA
[5] = test system: FITC-labeled PLG binding to E. faecalis V583 cell surface; test: Flow cytometric evaluation of FITC-PLG binding to E. faecalis; set-up: species or system Enterococcus faecalis; settings: for geometric mean fluorescence intensity of cells (surface-bound FITC-PLG): 1768 in the absence of TXA
Description: Flow cytometric evaluation of PLG binding. PLG binding to the bacterial surface was measured as previously described, with minor modifications (52′). Bacteria were grown overnight in TY. Cultures were diluted to a final density of roughly 8×10^6 CFU/mL. […] Cells were pelleted, washed three times with PBS, and resuspended. Fluorescence was analyzed using an Imagestream ISX flow cytometer. Enterococci were detected using log-forward and log-side scatter dot plots, and a gating region was set to exclude debris and aggregates of bacteria. Bacteria were analyzed for FITC-range fluorescence using log-scale amplification, of which the geometric mean fluorescence intensity was recorded as a measure for PLG binding. FITC-range fluorescent signal was confirmed by light and fluorescent microscopy of each event.
Flow cytometry was performed after incubation of V583 with FITC-labeled PLG as before. 80.9% of cells reached a subjectively determined threshold for surface-bound FITC-PLG. […] The effect was concentration-dependent and statistically significant (FIG. 37D).

[6] = test system: collagenolytic E. faecalis; test: Quantitative culture of collagenolytic E. faecalis after V583-induced AL
E. faecalis = E. faecalis growth (OD600 over four hours); type: cell-based, Enterococcus faecalis; settings: TXA added to culture medium
Description: FIG. 44. […] Figures are representative of three separate experiments, each run in triplicate. Error bars indicate means±SD.

[7] = test system: E. faecalis V583 and FITC-PLG at the anastomotic site; test: Co-localization of E. faecalis and PLG at the anastomotic site; type: in vivo, mice; settings: TXA enema POD 1, 2, 3; POD3
Description: Co-localization of E. faecalis and PLG: Mice underwent anastomotic surgery with postoperative introduction of E. faecalis V583. The mice received post-operative TXA or vehicle enemas as described herein. They received a systemic (intra-peritoneal) injection of 100 L 4 M FITC-labeled PLG one hour prior to sacrifice. Anastomotic tissue was collected in sterile fashion and cryosectioned. Slides were stained with 4′,6-diamidino-2-phenylindole (DAPI) for colonic mucosa. For visualization of microbial organisms, the inventors used probes designed by Miacom Diagnostics, which use a fluorescence in situ hybridization (FISH) beacon-based technology. An E. faecalis-specific probe was labeled with Alexa Fluor 647. Staining was performed overnight per the manufacturer's protocol. Confocal microscopy was performed on a Leica SP5 II AOBS tandem scanner spectral confocal system on a DMI6000 microscope and controlled by LASAF software (version 2.8.3). […] channels were collected at each location using sequential excitation (excitation: 405, 488, and 633; emission: 412-452, 495-537, and 654-755 nm pass bands) on either photomultiplier or HyD hybrid detectors. […]
Co-localization of E. faecalis and plasminogen at the anastomotic site. […] Mice undergoing E. faecalis-mediated anastomotic leak were administered FITC-labeled PLG (as observed by green fluorescence) systemically. […]

[8] = test system: P. aeruginosa-induced anastomotic leak; test: Mouse model of P. aeruginosa-induced anastomotic leak; type: in vivo, mice
Description: Mouse model of AL. The experiments disclosed herein used the validated model of pathogen-mediated AL in mice (8′). Ten- to 12-week-old C57BL/6 mice (Charles River) were provided standard chow and tap water ad libidum at all times. When indicated, mice received oral clindamycin (100 mg/kg gavage) and subcutaneous cefoxitin (40 mg/kg) the day prior to, and the day of, surgery. Mice underwent general anesthesia with intraperitoneal ketamine and xylocaine and laparotomy followed by transection of the colon at the colo-rectal junction followed by a primary anastomosis created with interrupted 8-0 prolene suture prior to abdominal closure with 4-0 vicryl suture in two layers. Rectal enemas containing pathogen, either E. faecalis or P. aeruginosa at an OD600 of 0.1 in 10% glycerol, were administered in 100 L enemas. E. faecalis was introduced on POD 1, 2, and 3, while P. aeruginosa was introduced only on POD 1. […] Rectal delivery with a gavage needle ensured local administration of pathogen and study drugs to the surgical site. Rules for stopping the experiment were enacted if mice appeared moribund or in any distress whereby they were sacrificed immediately. There were three deaths prior to planned sacrifice, all determined secondary to feculent peritonitis due to AL. Both the surgeon and the investigator performing analysis of healing were blind to the treatment group. […]

RAW macrophages = test: PLG activation by RAW macrophages stimulated with E44 conditioned media; type: cell-based, murine; settings: TXA 10 mM, PLG 250 nm, 4 hours
Description: (A), E. faecalis E44 was grown in TY media overnight, and cell-free conditioned media (E44s) was applied to RAW macrophages for 4 hours. PLG, 250 nm, was included in the reaction. TXA, 10 mM, was added when needed. PLG activation was measured by fluorogenic substrate cleavage. “RAW” column is naïve RAW. *p<0.05, n=6/group. (B), Conditioned media after co-interaction of macrophages with E. faecalis E44 (named RAW/E44s) was applied to naïve RAW macrophages for 4 hours. PLG, 250 nm, and MMP9, 1 nM, were in all reactions. TXA, 10 mM, was added when needed. “RAW+RAWs” column is naïve macrophages incubated with conditioned media of RAW macrophages (no E. faecalis E44). *p<0.05, n=6/group.
RAW 264.7 or J774 murine macrophages were incubated at 37° C. and 5% CO2 in Dulbecco's modified eagle media (DMEM) with 10% fetal bovine serum, penicillin/streptomycin and antifungals during growth. For plasmin activity assays, cells were plated at 10^4 cells/well on a 96-well plate in phenol-free DMEM with 1% FBS. Added bacteria were in low volumes of TY.
RAW 267.4 murine macrophages are co-incubated with E44, reasoning that bacteria and macrophages regularly co-interact in healing gut tissue. […] To confirm the expectation, naïve macrophages were stimulated with conditioned media from E44 overnight culture.

Chain of PLG activation by E. faecalis V583 (P00747 20-810): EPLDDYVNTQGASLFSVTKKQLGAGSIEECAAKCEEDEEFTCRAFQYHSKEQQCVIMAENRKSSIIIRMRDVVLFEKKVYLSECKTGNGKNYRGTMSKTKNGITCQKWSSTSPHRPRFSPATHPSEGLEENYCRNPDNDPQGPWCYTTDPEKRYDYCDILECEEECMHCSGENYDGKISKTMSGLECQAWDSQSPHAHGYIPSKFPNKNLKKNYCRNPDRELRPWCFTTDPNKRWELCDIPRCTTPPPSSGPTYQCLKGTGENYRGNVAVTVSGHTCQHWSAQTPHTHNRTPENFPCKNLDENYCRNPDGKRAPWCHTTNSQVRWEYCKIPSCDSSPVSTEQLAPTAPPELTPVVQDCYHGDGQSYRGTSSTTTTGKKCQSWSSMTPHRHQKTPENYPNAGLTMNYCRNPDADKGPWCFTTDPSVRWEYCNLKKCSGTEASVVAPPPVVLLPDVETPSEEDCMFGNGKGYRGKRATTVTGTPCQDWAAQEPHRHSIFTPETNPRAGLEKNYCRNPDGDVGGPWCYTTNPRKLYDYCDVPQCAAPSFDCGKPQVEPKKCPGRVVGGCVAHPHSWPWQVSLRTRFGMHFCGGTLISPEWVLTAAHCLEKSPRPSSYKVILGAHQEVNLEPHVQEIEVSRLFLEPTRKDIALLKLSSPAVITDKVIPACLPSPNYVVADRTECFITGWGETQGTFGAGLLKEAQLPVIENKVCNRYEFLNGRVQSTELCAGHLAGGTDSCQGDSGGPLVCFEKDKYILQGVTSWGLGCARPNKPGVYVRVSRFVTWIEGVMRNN
Chain of FITC-PLG at the anastomosis (P00747 20-810 limits assumed): as the sequence (P00747 20-810) above

NC[C@H]1CC[C@H](C(=O)O)CC1 [TXA, tranexamic acid]
mean anastomotic healing score (AHS) ([1]; 100 μL enema of 50 mM TXA POD 1, 2, 3, POD 8, vehicle 2.7±0.2): 1.5±0.2
trichrome staining of POD8 anastomotic tissue ([1]; TXA enema versus vehicle with AL): increased quantity and organization of fibroblastic products in the submucosa
FITC-PLG positivity at the anastomosis (integrated density/area) [2]: significantly decreased the amount of FITC-PLG positivity at the anastomosis at both time points
reduction in PLG activation by E. faecalis ([3]; in vitro, concentrations lower than circulating concentration after PO dosing (FIG. 23)): 20%
PLG activation by V583 in the presence of uPA ([3]; plasmin activity assay, PLG 250 nM, uPA): inhibited PLG activation by V583 in a concentration-dependent manner
gelatin degradation in V583-stimulated macrophages ([4]; PLG, uPA, 6 hours, no added pro-MMP9): significantly inhibited gelatin degradation
gelatin degradation in V583-stimulated macrophages ([4]; with added pro-MMP9): significantly diminished
geometric mean fluorescence intensity of cells (surface-bound FITC-PLG) ([5]; 2 mM TXA): 936
geometric mean fluorescence intensity of cells (surface-bound FITC-PLG) ([5]; 10 mM TXA): 77
surface binding of FITC-PLG by E. faecalis ([5]; flow cytometry and single-cell microscopy): decrease in surface binding of FITC-PLG; also recorded: Fluorescent signal was not present
collagenolytic E. faecalis in anastomotic luminal contents ([6]; POD 3, versus water enema): significantly decreased
CFU/mg collagenolytic E. faecalis in anastomotic tissue ([6]; POD 8, versus water enema): significantly fewer
collagenolytic E. faecalis in anastomotic luminal contents ([6]; POD 8, versus water enema): persisted but did not reach statistical significance
CFU/mg collagenolytic E. faecalis in anastomotic tissue ([6]; day 3, versus water enema): no difference was observed
bacterial growth (change in OD600 over four hours) (E. faecalis): no effect on bacterial growth
co-localization of V583 with FITC-PLG at the anastomotic site [7]: effectively prevented co-localization
penetration of V583 into the colonic mucosa [7]: diminished penetration of V583 into the colonic mucosa
clinical / gross leak ([8]; 5 mice per group, enema POD 1, 2, 3): None of the mice
anastomotic healing score (AHS) ([8]; 100 μL enema POD 1, 2, 3 (50 mM TXA in water or PBS), POD 8, water 3.8±0.4): 1.6±0.5 and 1.6+/−0.6
PLG activation by macrophages stimulated with E44 conditioned media (RAW macrophages): This effect was inhibited

From patent US12383579B2, “Materials and methods of using an inhibitor of plasminogen activation to treat anastomotic leak” (THE UNIVERSITY OF CHICAGO, priority 2018, dated 2025)
